Series [1] deals with porcine aortic smooth muscle cells. Briefly: Porcine smooth muscle cell antiproliferation, serum stimulation (3H thymidine incorporation). The format is cell-based. Particulars: serum-stimulated.
Description: (§2) The ability of the compounds of the present invention to inhibit smooth muscle cell proliferation was established using isolated porcine aortic smooth muscle cells in a modification of the procedure of Castellot et al. J. Biol. Chem 257(19) 11256 (1982), as follows:
(§3) Fresh porcine aortas, scrupulously cleansed of fatty tissue, are rinsed in sterile phosphate-buffered saline with 2% antibiotic-antimycotic (100×) liquid (10,000 units of penicillin (base), 10,000 μg of streptomycin (base), and 25 μg of amphotericin B/mL utilizing penicillin G (sodium salt), streptomycin sulfate, and amphotericin B as Fungizone® in 0.85% saline, available from Gibco Laboratories, Grand Island Biological Co., Grand Island, N.Y.). The tissue is then digested in 10-15 mL of an enzyme solution containing collagenase type I, 165 U/mL; elastase type III, 15 U/mL; BSA, 2 mg/mL; and soybean trypsin inhibitor, 0.375 mg/mL, followed by incubation at 37° C. under 5% CO2 atmosphere for 10 to 15 minutes. After this treatment, the outer surface adventitia is removed by peeling with a forceps. The aorta is then longitudinally cut and laid open and the endothelial layer is removed by scraping.
(§4) The medial layer of cells is rinsed in the enzyme solution, and placed in a new 100 mm dish with 10 mL of enzyme solution. The medial layer of cells is minced using a fine pair of scissors and digested for 2-3 hours at 37° C. in 30 mL of fresh enzyme solution. After digestion, the medial tissue is homogenized using a sterile Pasteur pipette with a fire polished tip or an Eppendorf pipetter with a 200-1000 μL sterile pipette tip. The suspension is then centrifuged for 10 minutes at 8000 rpm and the pellet is suspended in 4-6 mL of fresh enzyme solution and plated onto 4-6 100 mm flasks with vented caps. The cells are then allowed to grow to confluence and split using 0.25% trypsin. The cells are evaluated for purity and overall quality using antibody to SMC actin.
(§5) The cells are assayed in early passage (generally passage 3-7) at sub-confluent conditions. Cultures are grown in 16 mm (24 well) multi-well culture dishes in media 199 supplemented with 10% fetal bovine serum and 2% antibiotic/antimycotic. At subconfluence, the cells are placed in a defined serum free, lymphocyte medium (AIM-V; Gibco) for 24-48 hours prior to initiating the experimental protocoL
(§6) The standard test procedure is initiated by addition of the test compound, ^3 H thymidine and serum or a specific growth factor to the serum deprived synchronized cells. Growth factor and serum stimulations are optimized for each cell type. The test compounds are added to each well at 50 fold dilution (20 μL/well) and the plates are incubated for 24-36 hours at 37° C. in 5% CO2 atmosphere. Test compounds are dissolved in 50% ethanol and assayed at 1, 10, and 100 μM. As a control, RG 50872 (Bilder, G. A.; et al., Am. J. Cell Physiol., 1991; 260: C721) is routinely assayed under the conditions of each cell preparation at a concentration of 5 μM.
(§7) At the completion of the experiment, the plates are placed on ice, washed three times with ice cold PBS and incubated in ice cold 10% trichloroacetic acid (TCA) for 30 minutes to remove acid soluble proteins. Each solution is transferred to a scintillation vial containing 0.4N HCl (500 μL/vial to neutralize NaOH) and each well is rinsed two times with water (500 μL) for a total volume of 2 mL/vial.
(§8) Data is quantitated by subjecting the vials to a scintillation counter, in triplicate, for both control and experimental samples. […] Experimental data is obtained from cells maximally stimulated with growth factor or serum and treated with a test compound. (The platelet-derived growth factor used in the assay was human recombinant PDGF-AB purchased from Upstate Biotechnology Inc., Lake Placid, N.Y.). Data is expressed as a percent of control from which IC50 s are determined.
Series [2] has the same test system. As to the kind of experiment: Porcine smooth muscle cell antiproliferation, PDGF stimulation (3H thymidine incorporation). Particulars: PDGF-stimulated (human recombinant PDGF-AB). The format is cell-based.
Description: as §2, §3, §4, §5, §6, §7, §8
Series [3] has as its system porcine smooth muscle cells. Briefly: Cytotoxicity, modified MTT assay, % viable cells. Also on record: dose or concentration left out as unconfirmed. Particulars: serum-free medium, 24 hours, 37° C. In kind it is cell-based. As to the method:
(§1) To distinguish cytotoxicity from the ability of a compound to prevent proliferation, the test compounds were examined using a commercial modification of the MTT assay. Briefly, cells were grown in 24 well plates to 70-80% confluency. The cells were serum deprived for 24-48 hours prior to initiation of the experimental protocol. To insure that the MTT assay monitored toxicity rather than proliferation, the cells were incubated with […] test compound in fresh medium without serum for 24 hours at 37° C. in a humidified CO2 incubator. Upon completion of the compound treatment, MTT indicator dye was added for 4 hours at 37° C. Cells were then solubilized and aliquots from each well were transferred to a 96-well plate for analysis. Absorbance at 570 nm wavelength with a reference wavelength of 630 nm was recorded using an ELISA plate reader.

Series [4] can be described thus: Cytotoxicity, modified MTT assay, % viable cells. The format is cell-based, porcine. Also on record: dose or concentration left out as unconfirmed. Particulars: pig, smooth muscle cells, serum-free medium, 37° C. As to the method: as §1
On the technique in general: Tetrazolium dyes change colour on reduction, which living cells bring about.

Consider 12 molecules from patent publication US6288100A, “Benzimidazole derivatives” (American Home Products Corporation, priority 1995, dated 2001).

Structures can show the parent of a compound that is named as a salt.

As for “4-[5-(Hydroxy-(phenyl)-methyl)-2-propyl -benzoimidazol-1-ylmethyl]-benzoic acid [Example 6]”, the “Porcine Smooth Muscle Cell Antiproliferation, Serum, % Inhibition at 20 μM” value in series [1] (20 μM) came to 45.9%. Moreover, in series [2], the half-inhibitory concentration (IC50) (commonly the point on the concentration scale where inhibition reaches its midpoint) came out at 11.2 µM. The “Cytotoxicity, % Viable Cells” value in series [3] amounted to 85.5%.
For the molecule `CCCc1nc2cc(C(=O)c3ccccc3)ccc2[nH]1` [Example 1, Phenyl-(2-propyl-1H-benzoimidazol-5-yl)-methanone], the inhibition (commonly the share of the control response that was lost under treatment) at 20 µM in series [1] (Sus scrofa, 20 μM) was 39.4%. The IC50 in series [2] (Sus scrofa) amounted to 12.9 µM. Besides, in series [4], the viability (usually a read-out of living cells in per cent, often relative to untreated cells) at 24 h was 80%.
`CCCc1nc2cc(C(=O)c3ccccc3)ccc2n1Cc1ccc(C(=O)OCC)cc1` [Example 2, 4-(5-Benzoyl-2-propyl-benzoimidazol-1-ylmethyl) -benzoic acid ethyl ester]: the IC50 was found to be 1.04 µM in series [1] (Sus scrofa) and 1.17 µM in series [2] (Sus scrofa). The same molecule gave a viability at 24 h in series [4] of 100%.
For `CCCc1nc2ccc(C(=O)c3ccccc3)cc2n1Cc1ccc(C(=O)OCC)cc1` [Example 3, 4-(6-Benzoyl-2-propyl-benzoimidazol-1-ylmethyl) -benzoic acid ethyl ester], the IC50 is 1.58 µM in series [1] (Sus scrofa) and 1.23 µM in series [2] (Sus scrofa). The molecule further gave a viability at 24 h in series [4] of 100%.
`CCCc1nc2ccc(C(=O)c3ccccc3)cc2n1Cc1ccc(C(=O)O)cc1` [Example 4, 4-(6-Benzoyl-2-propyl-benzoimidazol-1-ylmethyl) benzoic acid] yielded an inhibition at 20 µM in series [1] (Sus scrofa, 20 μM) of 61.8%. For the same molecule, the “Porcine Smooth Muscle Cell Antiproliferation, PDGF, % Inhibition (concentration not given)” value in series [2] (concentration not given) is listed as 0%. The viability at 24 h in series [4] came to 100%.
`CCCc1nc2cc(C(=O)c3ccccc3)ccc2n1Cc1ccc(C(=O)O)cc1` [Example 5, 4-(5-Benzoyl-2-propyl-benzoimidazol-1-ylmethyl)-benzoic acid] registered an inhibition at 20 µM in series [1] (Sus scrofa, 20 μM) of 41%. The IC50 in series [2] (Sus scrofa) came to 15.9 µM. The molecule also displayed a viability at 24 h in series [4] of 78%.
In series [1] (Sus scrofa, 10 μM), `CCCc1nc2cc(C(O)c3ccccc3)ccc2n1Cc1ccc(C(=O)O)cc1` (stereo not drawn) [Example 7, 4-[5-(Hydroxy-(phenyl)-methyl)-2-propyl-benzoimidazol-1-ylmethyl]-benzoic acid hydrochloride] came in with an inhibition at 10 µM of 36%. In addition, the IC50 in series [2] (Sus scrofa) was 17.6 µM. In addition, the viability at 24 h in series [4] turned out to be 85%.
For the molecule `CCCc1nc2cc(C(=O)c3ccccc3)ccc2n1Cc1ccc(Cl)c(Cl)c1` [Example 8, [1-(3,4-Dichloro-benzyl)-2-propyl-1H-benzoimidazol-5-yl]-phenyl-methanone], in series [1] (Sus scrofa, 20 μM), the inhibition at 20 µM is 90%. Also, in series [2] (Sus scrofa), the concentration for half-maximal inhibition (IC50) fell in the range of 0.096 to 0.465 µM. For the same molecule, the viability at 24 h in series [4] turned out to be 100%.
As for `COc1cc(-c2nc3cc(C(=O)c4ccccc4)ccc3[nH]2)ccc1O` [Example 9, [2-(4-Hydroxy-3-methoxy-phenyl)1H-benzoimidazol-5-yl]-phenyl-methanone], the IC50 in series [1] (Sus scrofa) lay within 8.03 to 11.4 µM; in series [2] (Sus scrofa) it was 3.74 to 4.14 µM. The viability at 24 h in series [4] stood at 100%.
On to `CCCCCCOc1ccc(-c2nc3cc(C(=O)c4ccccc4)ccc3[nH]2)cc1OC` [Example 10, [2-(4-Hexyloxy-3-methoxy-phenyl)-1H benzoimidazol-5-yl]phenyl-methanone], for which the IC50 in series [1] (Sus scrofa) is 13.5 µM; in series [2] (Sus scrofa), 0.762 µM. In series [4], this molecule gave a viability at 24 h of 100%.
With `O=C(c1ccccc1)c1ccc2[nH]c(-c3ccc(OC(F)(F)F)cc3)nc2c1` [Example 11, Phenyl-[2-(4-trifluoromethoxy-phenyl)-1H -benzoimidazol-5-yl]methanone], the results for the half-maximal inhibitory concentration (IC50) in series [1] (Sus scrofa) and in series [2] (Sus scrofa) were 1.82 µM and 7.7 µM, respectively. The molecule further registered a viability at 24 h in series [4] of 100%.
For the molecule `COc1ccc(Cc2nc3cc(C(=O)c4ccccc4)ccc3[nH]2)cc1OC` [Example 12, [2-(3,4-Dimethoxybenzyl)-1H-benzoimidazol-5-yl]-phenyl-methanone], the values for the half-inhibitory concentration (IC50) in series [1] (Sus scrofa) and in series [2] (Sus scrofa) were 7.74 µM and 0.081 to 0.14 µM, respectively. In series [4], this molecule gave a viability at 24 h of 100%.
